Laboratory results published in PubChem BioAssay (NCI).
Values joined by “and” are separate entries in the source; they are usually repeats but may differ in a detail not shown here. Identical values can stand only once.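 Cells were grown in 96-well plates and exposed to each compound for 48 hours at five concentrations; endpoints were interpolated linearly between bracketing concentrations, or set to the highest concentration if not reached. GI50: concentration for 50% inhibition of growth. TGI denotes the concentration required for complete inhibition of growth.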

Columns and labels:
Test in all cases: NCI tumour cell line growth inhibition, 48 h
HOP-18 NSCLC = test system: HOP-18 NSCLC
MDA-N = test system: MDA-N
XF 498 CNS = test system: XF 498 CNS
SNB-78 CNS = test system: SNB-78 CNS
SN12K1 renal = test system: SN12K1 renal
P388 leukemia = test system: P388 leukemia
DMS 114 small cell lung = test system: DMS 114 small cell lung
P388/ADR leukemia = test system: P388/ADR leukemia
MCF7 breast = test system: MCF7 breast
RXF-631 renal = test system: RXF-631 renal
DLD-1 colon = test system: DLD-1 colon
DMS 273 small cell lung = test system: DMS 273 small cell lung

Structure (SMILES)	GI50 (HOP-18 NSCLC)	TGI (HOP-18 NSCLC)	TGI (MDA-N) [µM]	TGI (XF 498 CNS) [µM]	TGI (SNB-78 CNS)	TGI (SN12K1 renal) [µM]	TGI (P388 leukemia) [µM]	TGI (DMS 114 small cell lung)	TGI (P388/ADR leukemia) [µM]	GI50 (MCF7 breast)	TGI (MCF7 breast)	TGI (RXF-631 renal) [µM]	TGI (DLD-1 colon) [µM]	TGI (DMS 273 small cell lung) [µM]
CCN(CC)CCNc1ccc(CO)c2sc3ccccc3c(=O)c12	3.02 µM and 11.4 µM	29.7 µM and 24.6 µM	16.6	24.5	35.1 µM and 28.4 µM	17.4	8.68	27.5 µM and 23 µM	31.3	2.21 µM and 4.35 µM and 5.57 µM	7.55 µM and 17.3 µM and 19.2 µM	–	–	–
CCC1N2CCCCC2[C@@H]2c3[nH]c4ccccc4c3CCN12 (stereo partly drawn)	–	> 100 µM	–	> 100	> 100 µM	–	–	> 100 µM	–	–	–	> 100	> 100	> 100
